Data as given in US7979946B2, “Polish and polishing mitts” (Kimberly-Clark Worldwide, Inc., priority 2006, dated 2011).
Entries after “also recorded” stand apart in the source; their conditions may differ.

Test system: mold
Assay: Inhibition of mold growth in a polish applied to a mitt
Assay type: cell-based
Details: chemical added to base polish (Pedag Deluxe Cream Polish), samples compared with each other
Excerpt: In each of the following Examples, a polish was applied to a mitt. The base polish was provided by Pedag USA, Inc. (Seattle) under the trade name Deluxe Cream Polish. […] The second sheet layer was constructed of a high-loft spunbond web of bicomponent polypropylene/polyethylene fibers with a side-by-side orientation laminated to a film of high density polyethylene on the inside surface. […] The first sheet layer and the second sheet layer were ultrasonically bonded leaving an opening for the insertion of two fingers (such as at seams 16 of FIGS. 1-3). Several different chemicals were tested to determine their ability to inhibit mold growth in a polish that has been applied to a mitt. For example, chloroacetamide, polyaminopropyl biguanide available under the name Cosmocil CQ from ICI Americas Inc., organosilicone quaternary ammonium compound available under the name AEM 5700 from Dow Chemical by Aegis Environmental Management (Midland, Mich.), a combination of combination of isothiazolones and N-/O-formals available under the name Parmetol DF35 from Schulke & Mayr, and methylparaben were each added to a base polish sample. The resulting polish samples were then applied to mitts. The ability of the polish to inhibit mold growth for each sample was then compared.

SMILES | ability of the polish to inhibit mold growth
COC(=O)c1ccc(O)cc1 [methylparaben] | inhibited growth of mold better than the other tested chemicals; also recorded: best results of all samples
CCC(=O)O [propanoic acid] | inhibited growth of mold better than the other tested chemicals
